Source: US7160900B2, “Tetrahydropyridino or piperidino heterocyclic derivatives” (Taisho Pharmaceutical Co., Ltd., priority 2000, dated 2007)

melting point: 160 to 162 °C
Structure (SMILES): Cc1cc(N2CC=C(CC(N)=O)CC2)c2cccc(-c3ccc(Cl)cc3Cl)c2n1 [compound 1-05, 2-{1-[8-(2,4-dichlorophenyl)-2-methylquinolin-4-yl]-1,2,3,6-tetrahydropyridin-4-yl}-acetamide]
